Publication PMC10082216 (Nature Communications, 2023)
Read-outs that look alike come from different tables or passages of the source.

Columns and labels:
[1] = system: synchronized ring-stage P. falciparum NF54; assay: Dose-response analysis on asexual parasites, NF54; assay type: cell-based, Plasmodium falciparum; conditions: for Parasitemia 1 / Parasitemia 2 / Parasitemia 3: NF54 ring stage; for IC50: Plasmodium falciparum, NF54, 48 h
Description: (§1) Plasmodium falciparum 3D7-pULG8-GFP or NF54 strains were synchronized by sorbitol lysis. Rings were then diluted to 0.5% parasitemia and loaded into an empty 96-well plate (200 µL/well). First, well volume was doubled and compound was added to obtain 20 µM (TD-6450) and 500 nM (NITD609) final concentrations. The ring suspension was then manually serially diluted 1/2 for 12 points, obtaining 9.77 nM (TD-6450) and 0.24 nM (NITD609) as lowest concentrations. The same operation was done with DMSO to have a negative control. After 48 hours of incubation, the plates were centrifugated and RBC pellets were incubated for 30 min with Sybr-G (1/1000 diluted in PBS, Thermo Fisher cat. no. S7567). After PBS washing (2x), pellets were resuspended in 200 µL of PBS and parasitemia was quantified by FACSCanto and analyzed with FlowJo V12. IC50s were determined using GraphPad Prism 5.1 as mentioned. Images from optical microscopy were taken using a Leica inverted microscope and analyzed with Las X software.

[2] = system: synchronized ring-stage P. falciparum 3D7-pULG8-GFP; assay: Dose-response analysis on asexual parasites, 3D7; assay type: cell-based; conditions: Plasmodium falciparum
Description: as §1

[3] = system: mature stage V gametocytes (NF54 strain); assay: High-throughput screening: killing effect by MitoTracker staining, primary screening at 1.11 µM and dose-response analysis; assay type: cell-based, Plasmodium falciparum; parameters: Killing 1 / Killing 2: unit not given here
Procedure, shortened: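 NF54 stage V gametocytes (day 17, density-purified, 0.5% hematocrit) exposed 24 h to compounds at 1.11 µM (primary) or in dose-response. Killing scored by MitoTracker staining; gametocytemia by Sybr Green/CellMask staining, with microsphiltration for stiffening. DMSO 0.05% negative control.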

[4] = 3D7, 48 h, read-out: IC50, 3D7 strain (Fig. 5B)

SMILES | IC50 [2, 4] [nM] | Killing 1 ([3]; Concentration (µM) 0.00457) | Killing 2 ([3]; Concentration (µM) 0.00457) | Killing 1 ([3]; Concentration (µM) 0.01372) | Killing 2 ([3]; Concentration (µM) 0.01372) | Killing 1 ([3]; Concentration (µM) 0.04115) | Killing 2 ([3]; Concentration (µM) 0.04115) | Killing 1 ([3]; Concentration (µM) 0.12346) | Killing 2 ([3]; Concentration (µM) 0.12346) | Killing 1 ([3]; Concentration (µM) 0.37037) | Killing 2 ([3]; Concentration (µM) 0.37037) | Killing 1 ([3]; Concentration (µM) 1.11111) | Killing 2 ([3]; Concentration (µM) 1.11111) | Killing 1 ([3]; Concentration (µM) 3.33333) | Killing 2 ([3]; Concentration (µM) 3.33333) | Killing 1 ([3]; Concentration (µM) 10) | Killing 2 ([3]; Concentration (µM) 10) | other results
CNC(=O)N1C[C@@H](C)N(c2ccc(C(=O)Nc3ccc(-c4ccc(-c5c[nH]c([C@@H]6CCCN6C(=O)[C@@H](NC(=O)OC)C(C)C)n5)cc4)c(OC(F)(F)F)c3)cn2)C[C@@H]1C [TD-6450] | 730 | 11.2808 | -14.2963 | 2.341 | 5.18 | 2.7905 | -6.465 | 6.495 | 2.622 | 21.5808 | 10.8967 | 13.8006 | -5.531 | 21.7528 | 15.2641 | 38.4381 | 9.163 | Parasitemia 1 ([1]; 10 µM): 0.14; Parasitemia 2 ([1]; 10 µM): 0.17; Parasitemia 3 ([1]; 10 µM): 0.23; Parasitemia 1 ([1]; 20 µM): 0.2; Parasitemia 2 ([1]; 20 µM): 0.18; Parasitemia 3 ([1]; 20 µM): 0.2; IC50 ([1]; 2 experiments, read-out: IC50 on asexual parasites, NF54): 1330 ± 230 nM; IC50 ([1]; ring stage, blue curves, read-out: IC50, NF54 strain (Fig. 5B)): 1170 nM; IC50 ([2]; 3D7, 2 experiments, 48 h, read-out: IC50 on asexual parasites, 3D7): 875 ± 205 nM
COc1cc2c(cc1OC)[C@@H]1Cc3ccc(OC)c(OC)c3CN1CC2 [(S)-(-)-Tetrahydropalmatine] |  | -2.5151 | 13.1152 | -0.7507 | 16.6892 | -11.759 | -1.725 | -2.104 | -3.416 | -7.032 | 6.932 |  | -20.6174 |  | 1.7558 |  | -10.2887 | 
C[C@H]1Cc2c([nH]c3cc(Cl)c(F)cc23)[C@@]2(N1)C(=O)Nc1ccc(Cl)cc12 [NITD609, cipargamin] | 1.25 | -6.197 | 1.637 | 7.015 | 11.7246 | 2.936 | 8.401 | 38.3591 | 39.938 | 69.6281 | 81.8548 | 86.7644 | 86.5546 | 82.0471 | 89.8018 | 93.1364 | 89.7094 | IC50 ([1]; ring stage, red curves, read-out: IC50, NF54 strain (Fig. 5B)): 1.8 nM; Killing IC10 ([3]; Fig. 3 dose-response): 50 nM; IC50 ([3]; Plasmodium falciparum, NF54, 24 h, stage V gametocytes NF54, 24 h, dose-response analysis, N/A = not active in dose-response analysis, read-out: Killing IC50): 150 nM; IC90 ([3]; Plasmodium falciparum, NF54, Fig. 3 dose-response): 500 nM
